Experimental data published in the NIST ThermoML archive (doi:10.1016/j.jct.2014.06.004).
± gives the expanded uncertainty stated by the source.

What was measured:
[1] = 100 kPa, Liquid; for speed of sound: Frequency=3 MHz, Sing-around technique in a fixed-path interferometer; for mass density: Vibrating tube method
[2] = refractive index (Na D-line) (dimensionless); conditions: 101.33 kPa, Liquid, Standard Abbe refractometry
[3] = xn = mol fraction of the nth substance listed; conditions: 100 kPa, Liquid; for speed of sound: Frequency=3 MHz, Sing-around technique in a fixed-path interferometer; for mass density: Vibrating tube method
[4] = refractive index (Na D-line) (dimensionless); xn = mol fraction of the nth substance listed; conditions: 100 kPa, Liquid, Standard Abbe refractometry

CCC(=O)O [propanoic acid]
Conditions	mass density, [1] [kg/m3]	refractive index, [2]	speed of sound, [1] [m/s]
293.15 K	993.9 ± 0.3	1.3865 ± 0.0005	1166 ± 2
298.15 K	988.5 ± 0.3	1.3848 ± 0.0005	1147 ± 2
303.15 K	983.1 ± 0.3	1.383 ± 0.0005	1128 ± 2
308.15 K	977.7 ± 0.3	1.3811 ± 0.0005	1109 ± 2
313.15 K	972.3 ± 0.3	1.3792 ± 0.0005	1090 ± 2

CCO [ethanol] + CCOC(=O)OCC
298.15 K, x2 = 0
Conditions	mass density [kg/m3]	refractive index	speed of sound [m/s]
[3]	785.2 ± 0.3	–	1142 ± 2
[4]	–	1.3594 ± 0.0005	–

CCOC(=O)OCC [diethyl carbonate]
298.15 K
Conditions	mass density [kg/m3]	refractive index	speed of sound [m/s]
[1]	969.3 ± 0.3	–	1177 ± 2
[2]	–	1.3825 ± 0.0005	–

CCOC(=O)OCC [diethyl carbonate] + CCO
298.15 K
Conditions	mass density, [3] [kg/m3]	refractive index, [4]	speed of sound, [3] [m/s]
x1 = 0.0415	800.3 ± 0.5	1.3614 ± 0.0005	1145 ± 2
x1 = 0.0943	817.7 ± 0.4	1.3635 ± 0.0005	1147 ± 2
x1 = 0.1932	845.9 ± 0.4	1.367 ± 0.0005	1150 ± 2
x1 = 0.2929	869.6 ± 0.4	1.3698 ± 0.0005	1154 ± 2
x1 = 0.3938	890 ± 0.4	1.3724 ± 0.0005	1156 ± 2
x1 = 0.4965	907.8 ± 0.3	1.3746 ± 0.0005	1159 ± 2
x1 = 0.597	923 ± 0.3	1.3765 ± 0.0005	1162 ± 2
x1 = 0.6924	935.7 ± 0.3	1.3781 ± 0.0005	1166 ± 2
x1 = 0.7911	947.6 ± 0.3	1.3796 ± 0.0005	1169 ± 2
x1 = 0.899	959.3 ± 0.3	1.3811 ± 0.0005	1173 ± 2
x1 = 0.9413	963.6 ± 0.3	1.3817 ± 0.0005	1175 ± 2
x1 = 1	969.3 ± 0.3	1.3825 ± 0.0005	1177 ± 2

CCCC(=O)O [butanoic acid]
Conditions	mass density, [1] [kg/m3]	refractive index, [2]	speed of sound, [1] [m/s]
293.15 K	957.8 ± 0.3	1.3983 ± 0.0005	1196 ± 2
298.15 K	952.8 ± 0.3	1.3963 ± 0.0005	1177 ± 2
303.15 K	947.9 ± 0.3	1.3942 ± 0.0005	1158 ± 2
308.15 K	942.9 ± 0.3	1.3922 ± 0.0005	1139 ± 2
313.15 K	938.1 ± 0.3	1.3901 ± 0.0005	1121 ± 2

CCC(=O)O [propanoic acid] + CCCCCCC(=O)O
x2 = 0
Conditions	mass density, [3] [kg/m3]	refractive index, [4]	speed of sound, [3] [m/s]
293.15 K	993.9 ± 0.3	1.3865 ± 0.0005	1166 ± 2
298.15 K	988.5 ± 0.3	1.3848 ± 0.0005	1147 ± 2
303.15 K	983.1 ± 0.3	1.383 ± 0.0005	1128 ± 2
308.15 K	977.7 ± 0.3	1.3811 ± 0.0005	1109 ± 2
313.15 K	972.3 ± 0.3	1.3792 ± 0.0005	1090 ± 2

CCCC(=O)O [butanoic acid] + CCCCCCC(=O)O
x2 = 0
Conditions	mass density, [3] [kg/m3]	refractive index, [4]	speed of sound, [3] [m/s]
293.15 K	957.8 ± 0.3	1.3983 ± 0.0005	1196 ± 2
298.15 K	952.8 ± 0.3	1.3963 ± 0.0005	1177 ± 2
303.15 K	947.9 ± 0.3	1.3942 ± 0.0005	1158 ± 2
308.15 K	942.9 ± 0.3	1.3922 ± 0.0005	1139 ± 2
313.15 K	938.1 ± 0.3	1.3901 ± 0.0005	1121 ± 2

CCO [ethanol]
298.15 K
Conditions	mass density [kg/m3]	refractive index	speed of sound [m/s]
[1]	785.2 ± 0.3	–	1142 ± 2
[2]	–	1.3594 ± 0.0005	–

CCCCCCC(=O)O [heptanoic acid]
Conditions	mass density, [1] [kg/m3]	refractive index, [2]	speed of sound, [1] [m/s]
293.15 K	917.7 ± 0.3	1.4234 ± 0.0005	1295 ± 2
298.15 K	913.5 ± 0.3	1.4214 ± 0.0005	1278 ± 2
303.15 K	909.3 ± 0.3	1.4194 ± 0.0005	1260 ± 2
308.15 K	905.1 ± 0.3	1.4173 ± 0.0005	1242 ± 2
313.15 K	900.9 ± 0.3	1.4153 ± 0.0005	1225 ± 2
